“Also recorded” adds a separate entry of the source. Where two headings read alike, the source gives them in different places.
Legend:
Sp2/0 myeloma = test system: Sp2/0 myeloma
Protocol: BALB/c male mice, aged 6-8 weeks and weighing ˜18-25 g, are procured from the Central Animal Facility, Indian Institute of Science, Bangalore. All mice received care according to institutional guidelines and are maintained under controlled conditions and fed with a standard diet.
(§1) Sp2/0 cells, a myeloma cell line, is grown in T175 flasks in IMDM complete medium supplemented with 10% fetal bovine serum, 2 mM L-glutamine, 100 U/ml penicillin, 100 μg/ml streptomycin, 10% nonessential amino acids, 10% HEPES, 10% sodium pyruvate, 50 μM 2-ME, 10 μg/ml gentamycin in a humidified atmosphere of 5% CO2 at 37° C.
An experimental syngeneic tumor model using the myeloma, Sp2/0 in BALB/c mice is studied. […] Different amounts of cells are washed and injected s.c. to establish the cell numbers that need to be injected to reproducibly display solid tumors within two weeks. Mice are sacrificed once the tumors reach a large size to avoid distress. Tumor volume is monitored on the mentioned days and calculated with the formula, V=a×b^2/2, where a is the longest and b is perpendicular to it, are measured on the surface of the tumor with vernier calipers.
BALB/c mice (5 per group) of 6 to 8 weeks of age are subcutaneously injected with Sp2/0 myeloma cells (˜10×10^6 cells/mouse). Thereafter, mice are intradermally injected with Mycobacterium indicus pranii (˜5×10^8) either 1 day prior to or 3 or 6 days post-inoculation of tumor cells. Tumor volume is estimated on 9th, 12th and 14th day of tumor inoculation. Vehicle alone (0.1 ml of PBS) is used as control and intradermally injected 3 days after administration of cells.
Next, the optimum dose of Mycobacterium indicus pranii required for reducing the tumor size and delaying the appearance of tumors is titrated. BALB/c mice (5 per group) of 6 to 8 weeks of age are subcutaneously injected with Sp2/0 Myeloma cells (˜10×10^6 cells/mouse). Mice are intradermally injected with different doses of Mycobacterium indicus pranii (5×10^3, 5×10^5, 5×10^7 and 5×10^8) 3 days post-inoculation of tumor cells. Tumor volume is estimated on the 9th, 12th and 14th day of tumor inoculation. Vehicle alone (0.1 ml of PBS) is used as control and intradermally injected 3 days after administration of cells.
BALB/c mice are intraperitoneally injected with three different doses of Cyclophosphamide, Indomethacin and RU486 four days after implantation of Sp2/0 cells. The doses of Cyclophosphamide, Indomethacin and RU486 are chosen based on that administered to mice and the standardization of the same in the Sp2/0 tumor model is depicted in FIG. 4. BALB/c mice (5 per group) of 6 to 8 weeks of age are subcutaneously injected with Sp2/0 myeloma cells (˜10×10^6 cells/mouse). The mice are then intraperitoneally injected with different doses of either Cyclophosphamide (5, 15 or 100 mg/Kg body weight/mouse) or Indomethacin (0.1, 1 or 10 mg/Kg body weight/mouse) or RU486 (0.1, 1 or 5 mg/Kg body weight/mouse), 4 days post-inoculation of tumor cells. Tumor volume is estimated on the 9th, 12th and 14th day after tumor inoculation. Vehicle alone (0.5 ml of PBS) is used as control and intradermally injected 4 days after administration of cells.
BALB/c mice (5 per group) of 6 to 8 weeks of age are subcutaneously injected with Sp2/0 myeloma cells (˜10×10^6 cells/mouse). Four groups of mice are intradermally injected with Mycobacterium indicus pranii (˜5×10^8) 3 days post-inoculation of tumor cells. Three groups of Mycobacterium indicus pranii injected mice are intraperitoneally injected with Cyclophosphamide (15 mg/Kg b. wt.), Indomethacin (1 mg/Kg b. wt.) and RU486 (1 mg/Kg b. wt.) on the next day.

EL4 thymoma = EL4 thymoma subcutaneous tumor model in C57BL/6 mice (tumor volume); assay type: in vivo
Protocol: as §1, with “EL4” for “Sp2/0”, “thymoma” for “myeloma”, “T75” for “T175”, “RPMI” for “IMDM”
C57BL/6 mice (5 per group) of 6 to 8 weeks of age are injected subcutaneously with EL4 […] cells (˜0.5×10^6 cells/mouse). Two groups of mice are intradermally injected with Mycobacterium indicus pranii (˜5×10^8) either 3 or 7 days post-inoculation of tumor cells. Two groups of mice one injected previously with MIP and another uninjected are intraperitoneally injected with 15 mg/Kg body weight of Cyclophosphamide on the next day. Tumor volume is estimated in the three groups of mice on the 11th, 14th and 17th day after tumor inoculation. This has been depicted in FIG. 13. Vehicle alone (0.1 ml of PBS) is used as control and intradermally injected 7 days after administration of cells.

[1] = test system: B-cell malignancies such as Multiple myeloma, Solitary plasmacytoma and Plasma cell leukemia; experiment: Mice with B-cell malignancies treated with MIP, Cyclophosphamide or both (Conclusion); assay type: in vivo; conditions: MIP ~5×10^8 intradermal and/or Cyclophosphamide 15 mg/Kg i.p. next day; compared with initial tumor size
Protocol: The synergistic combination of Cyclophosphamide and Mycobacterium indicus pranii is administered to mice detected with B-cell malignancies such as Multiple myeloma, Solitary plasmacytoma and Plasma cell leukemia. The experiment is conducted mainly on mice which have been detected with said myelomas. The mice are initially examined and the tumor growth and size approximately determined. The mice are then divided into groups so that 5 mice form a group. One mice group is subjected to only Mycobacterium indicus pranii treatment and another group to only Cyclophosphamide treatment. The third group of mice is subjected to a treatment of Mycobacterium indicus pranii along with Cyclophosphamide. This third group of mice are initially intradermally injected with Mycobacterium indicus pranii at a concentration range of ˜5×10^8 cells. […] The mice are then re-examined and the tumor volume estimated on different days after Mycobacterium indicus pranii administration.

In the case of O=P1(N(CCCl)CCCl)NCCCO1 (stereo not shown) [Cyclophosphamide], the tumor progression (Sp2/0 myeloma; 5 mg/Kg body weight i.p. day 4, alone) is reported as “not able to reduce tumor progression”, the “tumor volume / tumor progression” value (Sp2/0 myeloma; 15 mg/Kg b. wt. i.p. day 4, alone) is reported as “not able to sufficiently prevent tumor progression; also recorded: showed some reduction in tumor volume” and the tumor volume (Sp2/0 myeloma; 15 mg/Kg b. wt. i.p. day 8, alone) is reported as “showed some reduction in tumor volume; also recorded: unable to induce any effect on tumor reduction”. For the same compound, the toxicity to mice (Sp2/0 myeloma; 50 mg/Kg b. wt. i.p.) was “toxic to mice”, the tumor volume (Sp2/0 myeloma; 50 mg/Kg b. wt. i.p. day 4, alone) was “effective” and the tumor volume (Sp2/0 myeloma; 50 mg/kg i.p. day 8, alone) was “significant tumor reduction”. The “effect on the mice (toxicity)” value (Sp2/0 myeloma; 100 mg/Kg body weight i.p. day 4) was “reduced body weight and hair loss”, the tumor progression (Sp2/0 myeloma; 100 mg/Kg body weight i.p. day 4, alone) was “able to prevent tumor progression to a considerable extent” and the tumor volume (Sp2/0 myeloma; 1, 5 and 15 mg/Kg b. wt. i.p. day 8, alone) was “did not significantly reduce tumor volume”. The tumor volume (Sp2/0 myeloma; 1 and 5 mg/Kg b. wt. i.p. day 4, alone) was “unable to reduce tumor volume”, the tumor volume (Sp2/0 myeloma; Cyclophosphamide alone on the same day as MIP (day 3), one day prior or one day after) was “had no effect on tumor volume” and the tumor reduction (EL4 thymoma; 15 mg/Kg body weight i.p. day 4 or day 8, alone) was “unable to induce any effect on tumor reduction”. For the same compound, the tumor size (EL4 thymoma; 15 mg/Kg body weight i.p. on day 8, alone, vs PBS) was “greater than observed with PBS” and the tumor size/volume [1] was “failed to elicit a similar tumor size reduction”.

COc1ccc2c(c1)c(CC(=O)O)c(C)n2C(=O)c1ccc(Cl)cc1 [Indomethacin] was tested, and the tumor volume (Sp2/0 myeloma; 0.1, 1 or 10 mg/Kg body weight i.p. day 4, alone, even at the highest dose) was “did not show any significant reduction in tumor volume” and the tumor volume (Sp2/0 myeloma; MIP ~5×10^8 intradermal day 3 plus drug i.p. day 4 (Cyclophosphamide 15, Indomethacin 1 or RU486 1 mg/Kg b. wt.)) was “seemed to reverse the beneficial effects observed with Mycobacterium indicus pranii”.
